Entries after “also recorded” stand apart in the source; their conditions may differ.
Legend:
[1] = Nerve conduction studies (peripheral nerve latency) in the Phase II trial; assay type: in vivo, human
Experimental: (§1) Screening procedures consisted of a full medical history, full physical, neurological and ophthalmic examination, blood and urine tests and psychometric tests (ADAS-Cog, MMSE) to confirm the patient's eligibility for the study. Nerve conduction tests and visual evoked responses were conducted between the screening and baseline visits to provide a baseline measurement and to exclude patients with undiagnosed peripheral neuropathies or visual disturbances. Blood was collected for ApoE allotyping and determination of baseline plasma levels of CQ, metals and Aβ prior to randomization.
(§2) Standard adverse event reporting to a safety monitoring committee, consisting of physicians independent of the study, was conducted to review adverse events at three monthly intervals and on an emergent basis. Following baseline, safety visits were conducted at weeks 2, 4, 8, 12, 16, 20, 24, 26, 28, 32 and 36. The patient and carer were questioned about any changes which might have occurred in the patient's health or medications since the last visit. Standard biochemical, renal and liver function, full blood examination, serum vitamin B12 and folate levels, blood pressure and weight were documented at each visit. A neurological examination was conducted at each visit to assess for peripheral neuropathy and optic neuropathy, and visual evoked responses, nerve conduction studies and a full ophthalmic examination (visual acuity, colour vision, fundal examination and visual field) were conducted at screening, at week 18 and at two weeks after trial completion. An ECG was performed at baseline and at weeks 12 and 24.

[2] = test system: patients with probable AD; assay: Phase II clinical trial of clioquinol: cognitive function (ADAS-Cog); assay type: in vivo, human; settings: for increase in ADAS-Cog scores: CQ group
Experimental: On the basis of the pre-clinical data, a Phase II clinical trial was prepared of CQ for the treatment of AD. Inclusion criteria for this Phase II study targeted a region on the ADAS-cog scale (20-45) where patients are moderately demented, still living at home, but anticipating an accelerated deterioration as part of the natural history of AD, over the next 12 months. Because the primary outcome was efficacy, a triple-blind design was chosen.
Criteria for inclusion in the study were:— • (a) informed consent; • (b) a diagnosis of probable AD by NINCDS-ADRDA criteria (McKhann et al., Neurology 34: 939-944, 1984); • (c) AD Assessment Scale-Cognitive (ADAS-Cog) score of 20-45 inclusive (Rosen et al., Am. J. Psychiatry 141: 1356-1364, 1984); • (d) Mini Mental State Examination (MMSE) score of 10-24 inclusive (Folstein et al., J. Psychiatr. Res. 12: 189-198, 1975); • (e) on donepezil hydrochloride 5 mg or 10 mg for at least six months; • (f) relative or carer willing and able to support the trial; • (g) able to complete trial examinations; and • (h) primary sensorial functions intact.
The study was a triple blind, placebo-controlled, randomized design. Thirty-six patients and their carers were recruited to participate, with patients being randomized to receive either CQ or placebo; there were 18 patients in each arm. The duration of the study was 36 weeks. CQ dosage was 125 mg twice daily from weeks 0-12, increased to 250 mg twice daily from weeks 13-24, and finally, 375 mg twice daily from weeks 25-36.
The primary efficacy variable was a change in the baseline score on the AD Assessment Scale (ADAS), which was conducted at baseline and at weeks 4, 12, 24 and 36. This readout was chosen for comparability of treatment effects with current therapeutic agents, such as donepezil, for which efficacy trials also used ADAS as their primary outcome measure (Rogers et al., Neurology 50: 136-145, 1998). Although numerous neuropsychological tests could be considered as secondary measures, it was necessary to avoid fatiguing the subjects at review. Therefore the only other cognitive test performed was the Mini-Mental State Exam (MMSE), which is well characterized and easily implemented. The Clinician's Interview Based Impression of Change (CIBIC), a subjective observational index also used in efficacy trials of acetylcholinesterase inhibitors, was conducted at baseline and at weeks 12, 24 and 36 by an independent researcher who was not part of the study team. Blood samples for measurement of plasma Aβ and plasma zinc and copper were all taken four weekly, by antecubital fossa venepuncture. […]

plasma Aβ42 = assay: Phase II clinical trial: plasma Aβ42; assay type: in vivo, human
Experimental: as §1
(§3) The primary efficacy variable was a change in the baseline score on the AD Assessment Scale (ADAS), which was conducted at baseline and at weeks 4, 12, 24 and 36. This readout was chosen for comparability of treatment effects with current therapeutic agents, such as donepezil, for which efficacy trials also used ADAS as their primary outcome measure (Rogers et al., Neurology 50: 136-145, 1998). Although numerous neuropsychological tests could be considered as secondary measures, it was necessary to avoid fatiguing the subjects at review. Therefore the only other cognitive test performed was the Mini-Mental State Exam (MMSE), which is well characterized and easily implemented. […]

[3] = Safety measures / adverse event reporting in the Phase II trial; assay type: in vivo, human
Experimental: as §2

plasma Aβ40 = assay: Phase II clinical trial: plasma Aβ40; assay type: in vivo, human
Experimental: as §1, §3

Aβ accumulation = settings: cited from earlier work
plasma Cu = assay: Phase II clinical trial: plasma copper; assay type: in vivo, human; settings: administration of CQ vs placebo
Experimental: as §1, §3

plasma Zn = assay: Phase II clinical trial: plasma zinc; assay type: in vivo, human
Experimental: as §1, §3

Oc1c(I)cc(Cl)c2cccnc12 [CQ, iodochlorhydroxyquin]
calf latency (baseline)-calf latency (week 20), Mean within-group change ([1]; Pair 1, paired difference, unit assumed): 0.575 ms | calf latency (baseline)-calf latency (week 36), Mean within-group change ([1]; Pair 2, paired difference, in ms (unit assumed)): .7937 | wrist 1 latency week 1-wrist 1 latency week 20, Mean within-group change ([1]; Pair 3, paired difference, in ms (unit assumed)): .5824 | wrist 1 latency week 1-wrist 1 latency week 36, Mean within-group change ([1]; Pair 4, paired difference, in ms (unit assumed)): .7875 | wrist 2 latency week 1-wrist 2 latency week 20, Mean within-group change ([1]; Pair 5, paired difference, in ms (unit assumed)): 1.000E−01 | wrist 2 latency week 1-wrist 2 latency week 36, Mean within-group change ([1]; Pair 6, paired difference, in ms (unit assumed)): .2429 | between group differences in nerve conduction parameters ([1]; detailed analyses, to week 36): no significant between group differences | risk of displaying abnormal nerve conduction ([1]; subjects on CQ vs placebo): increased risk | increase in ADAS-Cog scores ([2]; less-severely affected patients): only small increases | increase in ADAS-Cog scores ([2]; more severely-affected patients): negligible increase | effect of treatment on ADAS-Cog ([2]; more-severely affected group (baseline ADAS-Cog≧25), CQ vs placebo): statistically significant; also recorded: significant effect on preventing cognitive decline | primary clinical outcome of efficacy, ADAS-Cog change from baseline ([2]; whole cohort, CQ vs placebo, 36 weeks, on donepezil): trend | change in plasma Aβ42 (plasma Aβ42; CQ-treated group, lowering from week 20 onwards, placebo increased): declined; also recorded: very significant lowering | plasma Aβ42 changes by severity (plasma Aβ42; less-severely affected individuals compared with more-severely affected): more evident | overall safety and tolerability ([3]; 36 weeks, 250-750 mg/day): safe and well tolerated | non-attributable serious adverse event (hospitalization) ([3]; CQ arm): syncope due to impaired cardiac function | albumin ([3]; CQ arm, group LFT changes): fell significantly | γ-GT, AST, ALT and bilirubin ([3]; CQ arm, group LFT changes): small significant elevation | reduction in haemoglobin ([3]; CQ arm, week 24, p=0.003): 6.88 g/L | reduction in haemoglobin ([3]; CQ arm, week 36, p=0.03): 5.5 g/L | adverse haematological events ([3]; CQ-treated subjects): no adverse haematological events | risk of impairment in visual acuity, colour vision, visual fields or fundoscopic abnormalities ([3]; between the two arms, McNemar's test): no significant differences | overt symptoms or signs of impaired liver function ([3]; changes at week 24 returning to normal by week 36): No subject developed any overt symptoms or signs of impaired liver function | likelihood of changes in liver function tests (LFT) ([3]; patients on CQ vs placebo): more likely | likelihood to develop diarrhoea ([3]; patients on CQ vs placebo): less likely | Abdominal pain, subjects ([3]; treatment arm n = 18): 2 | Constipation, subjects ([3]; treatment arm n = 18): 2 | Decreased vitamin B12, subjects ([3]; treatment arm n = 18): 0 | Diarrhoea, subjects ([3]; treatment arm n = 18): 1 | Impaired nerve conduction, subjects ([3]; treatment arm n = 18): 3 | Impaired reflexes, subjects ([3]; treatment arm n = 18): 1 | Lymphopoenia, subjects ([3]; treatment arm n = 18): 0 | Microalbuminurea, subjects ([3]; treatment arm n = 18): 5 | Nausea, subjects ([3]; treatment arm n = 18): 2 | Numb legs, subjects ([3]; treatment arm n = 18): 2 | Postural Dizziness, subjects ([3]; treatment arm n = 18): 7 | Postural Hypotension, subjects ([3]; treatment arm n = 18): 12 | Postural Tachyardia, subjects ([3]; treatment arm n = 18): 12 | Raised bilirubin, subjects ([3]; treatment arm n = 18): 2 | Raised γGT, subjects ([3]; treatment arm n = 18): 2 | Subjects with +1 postural symptom ([3]; treatment arm n = 18): 13 | Subjects with =1 GI symptom ([3]; treatment arm n = 18): 5 | Subjects with =1 abnormal LFT ([3]; treatment arm n = 18): 4 | Subjects with =1 neurological symptom ([3]; treatment arm n = 18): 6 | Mean number discrete Adverse Events Per subject ([3]; treatment arm, 61/18): 3.38 | number of attributable events reported ([3]; treatment group, n = 18): 61 | Abdominal pain, Relative Risk ([3]; treatment vs placebo): 2.0 | Diarrhoea, Relative Risk ([3]; treatment vs placebo): 0.25 | Impaired nerve conduction, Relative Risk ([3]; treatment vs placebo): 3.0 | Impaired reflexes, Relative Risk ([3]; treatment vs placebo): 0.5 | Microalbuminurea, Relative Risk ([3]; treatment vs placebo): 1.00 | Postural Dizziness, Relative Risk ([3]; treatment vs placebo): 2.33 | Postural Hypotension, Relative Risk ([3]; treatment vs placebo): 1.09 | Raised γGT, Relative Risk ([3]; treatment vs placebo): 2.0 | Subjects with +1 postural symptom, Relative Risk ([3]; treatment vs placebo): 0.93 | Subjects with =1 GI symptom, Relative Risk ([3]; treatment vs placebo): 1.25 | Subjects with =1 abnormal LFT, Relative Risk ([3]; treatment vs placebo): 4.0 | Subjects with =1 neurological symptom, Relative Risk ([3]; treatment vs placebo): 1.5 | Mean number discrete Adverse Events Per subject, Mean diff ([3]; treatment vs placebo, p = 0.327): 0.611 | plasma Aβ40 levels (plasma Aβ40; compared with Aβ42 trends, CQ vs placebo): overall similar trends | plasma Aβ40, placebo vs CQ groups (plasma Aβ40; weeks 8, 32 and 36, less-severely affected groups): significant differences | effect on Aβ deposits in transgenic mice (Aβ accumulation; 30 mg/kg body weight by gavage (Cherny et al., 2001)): effective | inhibiting Aβ accumulation in transgenic mice (Aβ accumulation; 20-30 mg/kg orally daily, five days per week, two to three months): markedly effective | plasma Cu (plasma Cu): no effect | rise of plasma Zn levels (plasma Zn; CQ, Phase II trial): 30% | total plasma Zn (plasma Zn; administration of CQ vs placebo): significant elevation
